Test results: BindingDB's records for doi:10.1021/jm021014d (University of Bari Aldo Moro, 2003)
pKi: −log10 of the molar value. Structures can show the parent of a compound that is named as a salt.

assay: Inhibition of [3H]pentazocine binding to Sigma receptor type 1 in guinea pig brain membrane without cerebellum

Compound | pKi
CC1CCN([C@@H](C)COc2ccc(Cl)cc2)CC1 [1-[2-(4-Chloro-phenoxy)-1-methyl-ethyl]-4-methyl-piperidine; hydrochloride] | 9.47
CC1CCN(C[C@H](C)COc2ccc(Cl)cc2)CC1 [1-[3-(4-Chloro-phenoxy)-2-methyl-propyl]-4-methyl-piperidine; hydrochloride] | 8.96
CC1CCN(C[C@@H](C)COc2ccc(Cl)cc2)CC1 [1-[3-(4-Chloro-phenoxy)-2-methyl-propyl]-4-methyl-piperidine; hydrochloride] | 8.77

Next, values leading:

pKi | Compound
8.93 | CC1CCN([C@H](C)COc2ccc(Cl)cc2)CC1 [1-[2-(4-Chloro-phenoxy)-1-methyl-ethyl]-4-methyl-piperidine; hydrochloride]
9.07 | C(/C=C/c1ccc2c(c1)OCO2)=C\CN1CCCCC1 [1-(5-Benzo[1,3]dioxol-5-yl-penta-2,4-dienyl)-piperidine]
